According to US4225579A, “Means and method for improving defenses against caries” (priority 1979, dated 1980):
Residues, ends and D or L forms follow the SMILES beside them.

Key:
Format in all cases: cell-based
[1] = tested on: oral bacteria; test: pH of glucose solution incubated with oral bacteria suspension, Sets I-IV; conditions: 37° C.; for pH at 0 minutes: 0 time when bacteria added, test substance 3.3 mM in combined composition
Experimental: Experiments were performed in vitro using supernatant saliva. The saliva was obtained from random donors whose salivary secretions were paraffin block stimulated. The saliva donations were pooled before and after sediment removal.
Four sets of three 10×75 mm test tubes were provided with 0.2 ml of 8.4 mM (millimolar) of aqueous glucose solution. Set I was provided with 0.2 ml of pooled supernatant saliva. Set II was provided with 0.2 ml of 9.9 mM of the peptide glycine-glycine-arginine. Set III was provided with 0.2 ml of 9.9 mM arginine. Set IV was provided with 0.2 ml of distilled water. Sequentially 0.2 ml of a 50:50 aqueous suspension of oral bacteria was added to each test tube. The concentration of the peptide in the combined composition was 3.3 mM. The prepared test tubes were kept at 37° C. in a water bath. pH readings were taken at 0 time when the bacteria was added and at 15, 30, 45, 60, 90, 120, 180 and 240 minutes.

[2] = tested on: salivary sediment; test: pH fall and rise with individual peptides of 2-4 amino acid units in salivary sediment-glucose mixture; conditions: for pH rising to / pH drop to: salivary sediment 16.7% (v/v), glucose 2.8 mM, peptide 3.3 mM; for pH rising to: measured through the fourth hour; for pH drop to: pH starts slightly above 7
Experimental: Four sets of three 10×75 mm test tubes were provided with 0.2 ml of 8.4 mM (millimolar) of aqueous glucose solution. Set I was provided with 0.2 ml of pooled supernatant saliva. […] Set IV was provided with 0.2 ml of distilled water. […] The concentration of the peptide in the combined composition was 3.3 mM. […] The pH values are as follows: Extensive testing of individual peptides of 2-4 amino acid units as could reasonably be obtained or synthesized was done. The tests were carried out under the same conditions as Sets I-IV. The salivary sediment was present in an amount of 16.7% (v/v), glucose 2.8 mM and the peptide 3.3 mM in the final composition. Duplicate runs without peptide were run parallel to the others as a double check. […] An effective pH rise factor begins to reverse the fall within the first hour. Measurement continues through the fourth hour.

[3] = tested on: oral bacteria; test: pH of glucose solution incubated with oral bacteria suspension, Sets I-IV; conditions: 37° C., 3.3 mM

| SMILES | pH at 0 minutes [1] | pH at 15 minutes ([1]; 3.3 mM) | pH at 39 minutes ([1]; 39 minutes, 3.3 mM) | pH at 45 minutes ([1]; 3.3 mM) | pH at 60 minutes ([1]; 3.3 mM) | pH at 90 minutes ([1]; 3.3 mM) | pH at 120 minutes ([1]; 3.3 mM) | pH at 180 minutes ([1]; 3.3 mM) | pH at 240 minutes ([1]; 3.3 mM) | pH rising to [2] | pH drop to [2] | effectiveness as pH rise factor [2] | pH at 39 minutes [3] |
| --- | --- | --- | --- | --- | --- | --- | --- | --- | --- | --- | --- | --- | --- |
| N=C(N)NCCC[C@H](N)C(=O)O.NCC(=O)O.NCC(=O)O [Gly-Gly-Arg, glycine-glycine-arginine] | 7.4 | 6.8 | 6.6 | 6.4 | 6.6 | 6.6 | 6.7 | 7.2 | 7.6 | 7.5 | 5.5 | – | – |
| N=C(N)NCCC[C@H](NC(=O)[C@H](CCCCN)NC(=O)CNC(=O)CN)C(=O)O [Gly-Gly-Lys-Arg, H-glycine-glycine-lysine-arginine-OH] (H-GGKR-OH) | – | – | – | – | – | – | – | – | – | 8.4 | 6.4 | proven effective | – |
| N=C(N)NCCC[C@H](N)C(=O)O [Set III, arginine, reference compound] | 7.3 | 5.8 | – | 5.2 | 4.9 | 5.0 | 5.0 | 5.3 | 5.8 | – | – | – | 5.4 |
